Legend:
[1] = tested on: seizures in rodent models of epilepsy; details: several rodent models; cited from earlier work
[2] = tested on: simple and complex partial seizures and secondarily generalized seizures; details: cited from earlier work
[3] = tested on: patients meeting DSM-IV criteria for chronic PTSD; test: Discontinuation, side effects and tolerability in the PTSD patient study; type: in vivo, human
From the text: Thirty five (35) patients meeting DSM-IV criteria for chronic post-traumatic stress disorder (PTSD) were selected for a study of the effects of topiramate administration. Of these, […] had non-hallucinatory PTSD and 6 hallucinatory PTSD. The group with hallucinatory PTSD experienced auditory and/or visual hallucinations containing content specifically associated with identified traumatic events. Whether these were PTSD “flashbacks” or psychotic experiences were at times difficult to ascertain due to fluctuations in reality testing the hallucinations. For this reason, prior to being screened for PTSD, some patients had received psychiatric diagnoses of psychotic disorders despite meeting full diagnostic criteria for PTSD.
Topiramate was added naturalistically to existing pharmacotherapy (see Table 1 for concomitant medications at start of trial), starting at 25 mglday and increasing whenever possible by 25 to 50 mg/day every 3 to 4 days to clinical response. Target symptoms were DSM-IV PTSD criterion B symptoms of nightmares (N =24) and intrusions (intrusive recollections/flashbacks, N=35) involving re-experiencing of traumas. Definitions of improvement, as assessed from patient self-report, included “partial response” as “definite reduction in intensity and frequency of nightmares or intrusions”, and “full response” as “complete cessation of nightmares and intrusions for a sustained period”. Following the seminal observations, in order to systematically identify responsive symptoms, the next 17 patients completed a self-report scale, the PTSD Checklist—Civilian Version (PCL-C)15, at baseline and at 4 weeks after starting topiramate. The patients were instructed to complete the PCL-C for experiences corresponding to traumas consistent with DSM-IV criterion A for PTSD. Paired ttest scores for the PCL-C were calculated with Jandel SigmaStat® v. 2.0.
Thirteen patients eventually discontinued treatment: 9 due to side effects (urticaria [N=1], eating cessation [N=2], ocular and limb paresthesias [N=1], severe headaches [N=1], overstimulation/panic [N=2], emergent suicidal ideation [N=1], and memory concerns [N=1]) and 4 for other reasons (patient choice [N=1], lack of relapse upon medication interruption [N=2], lack of efficacy [N=1]). Five of the discontinuers had experienced full symptom remission prior to discontinuation and 3 additional patients reported partial response.
Discontinuation due to medication-associated side effects, such as nausea and memory concerns, may have been due to the presence of other medications, to medication interactions, or to individual variation in time needed to accommodate to initial side effects. Subsequent to discontinuation of topiramate, the patient who experienced urticaria continued to complain of unrelated episodes of urticaria. […] When they occurred, side effects were easily managed by dosage reduction or a brief hiatus in administration.

CC1(C)O[C@@H]2[C@@H](CO[C@@]3(COS(N)(=O)=O)OC(C)(C)O[C@@H]23)O1 [Topiramate, 2,3:4,5-bis-O-(1-methylethylidene)-β-D-fructopyranose sulfamate]
Seizure block in rodent models of epilepsy [1]: effectively block seizures | Efficacy in treatment of seizure types ([2]; adults and children): efficacy in the treatment of a broad range of seizure types | Efficacy in clinical trials of human epilepsy ([2]; simple and complex partial seizures and secondarily generalized seizures): effective as adjunctive therapy or as monotherapy | Safety in the study ([3]; PTSD patients): posed no safety issues | Tolerability ([3]; PTSD population): appeared well tolerated | Patients discontinued due to side effects ([3]; of 35 patients): 9 | Patients who eventually discontinued treatment ([3]; of 35 patients): Thirteen | Additional discontinuers reporting partial response ([3]; of thirteen discontinuers): 3 patients | Discontinuers with full symptom remission prior to discontinuation ([3]; of thirteen discontinuers): Five

Source: US6486198B1, “Compounds and methods for the treatment of post traumatic stress disorder” (priority 1999, dated 2002)
